According to US20230295118A1 (EnhancedBio Inc., priority 2022, published 2023):

Columns and labels:
CDK6 = target: T1, CDK6 (Homo sapiens, UniProt Q00534); experiment: CDK6 degradation (DC50, Dmax); type: cell-based
T1 construct: endogenous in cells

CDK4 = target: T2, CDK4 (Homo sapiens, UniProt P11802); experiment: CDK4 degradation (DC50, Dmax); type: cell-based
T2 construct: endogenous in cells

CDK4/6 = CDK4/6 degradation in A375 melanoma cells (FIG. 1); type: cell-based; settings: result in words
[1] = system: mantle cell lymphoma cell (Mino or JeKo-1); experiment: Antiproliferative effect, MTS cell viability assay; type: cell-based; settings: 72 h; for IC50: mantle cell lymphoma cell (Mino or JeKo-1), MTS assay, read-out: IC50 (anti-proliferation); for inhibition of cell proliferation of Mino cells: 0-1 μM, result in words
Procedure, shortened: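 Mino cells treated with compounds at 0, 0.0001, 0.001, 0.01, 0.1, 1 μM for 72 h; palbociclib and abemaciclib as positive controls. Viability by MTS, formazan absorbance read at 490 nm.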

Mino xenograft tumor = experiment: In vivo tumor inhibition efficacy, Mino xenograft; settings: NOD/SCID mice, 20 mg/kg via oral gavage for 3 weeks; result in words
Protocol: Mino cells were obtained from American Type Culture Collection (ATCC, Manassas, VA). Cells were maintained in RPM 1640 (Life Technologies, Grand Island, NY) supplemented with 10% heat-inactivated fetal bovine serum (56° C. for 30 minutes), penicillin (10 000 units/mL; Sigma, St Louis, Mo), streptomycin (10 mg/mL; Sigma), gentamicin (50 mg/mL; Life Technologies), amphotericin B (25 mg/mL; Sigma), and L-glutamine (200 mM, 29.2 mg/mL; Life Technologies), culture, as previously described (29, 30). Mino cells (10 million) were subcutaneously implanted into the flank of NOD/SCID mice. When the average tumor volume reached approximately 300 cubic millimeters (mm^3), the following treatments were administered in cohorts of 5 mice for each treatment: vehicle alone, 20 mg/kg abemaciclib, 20 mg/kg Compound 90, or 20 mg/kg Compound 94 via oral gavage for 3 weeks. Tumor growth was monitored twice weekly by calipers and tumor volume was calculated using the equation: (½ (length×width^2)).

T2 sequence (P11802 whole entry): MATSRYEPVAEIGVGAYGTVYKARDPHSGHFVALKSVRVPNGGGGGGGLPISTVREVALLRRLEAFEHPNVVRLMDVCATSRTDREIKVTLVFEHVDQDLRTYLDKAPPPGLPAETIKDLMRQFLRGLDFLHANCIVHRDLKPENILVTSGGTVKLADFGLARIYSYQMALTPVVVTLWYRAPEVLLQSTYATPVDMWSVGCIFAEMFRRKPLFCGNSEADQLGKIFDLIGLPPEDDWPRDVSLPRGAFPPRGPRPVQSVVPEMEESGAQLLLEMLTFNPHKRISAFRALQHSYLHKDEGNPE
T1 sequence (Q00534 whole entry): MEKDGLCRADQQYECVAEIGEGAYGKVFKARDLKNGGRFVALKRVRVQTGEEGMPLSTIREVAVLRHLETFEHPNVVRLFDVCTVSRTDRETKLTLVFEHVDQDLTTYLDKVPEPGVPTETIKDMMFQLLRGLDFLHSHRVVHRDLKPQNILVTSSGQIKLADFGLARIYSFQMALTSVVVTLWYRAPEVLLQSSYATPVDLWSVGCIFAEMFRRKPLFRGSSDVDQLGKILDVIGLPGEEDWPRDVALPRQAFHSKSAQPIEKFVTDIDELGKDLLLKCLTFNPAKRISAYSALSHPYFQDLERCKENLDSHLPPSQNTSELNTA

| Structure (SMILES) | DC50 (CDK6) | Dmax (CDK6) | DC50 (CDK4) | Dmax (CDK4) | IC50 [1] | CDK4/6 degradation (CDK4/6) | inhibition of cell proliferation of Mino cells [1] | Mino xenograft tumor growth (Mino xenograft tumor) |
| --- | --- | --- | --- | --- | --- | --- | --- | --- |
| CC(=O)c1c(C)c2cnc(Nc3ccc(N4CCN(CCCNc5ccc6c(c5)C(=O)N(C5CCC(=O)NC5=O)C6=O)CC4)cn3)nc2n(C2CCCC2)c1=O (centres unmarked) [Compound 49, 5-((3-(4-(6-((6-acetyl-8-cyclopentyl-5-methyl-7-oxo-7,8-dihydropyrido[2,3-d]pyrimidin-2-yl)amino)pyridin-3-yl)piperazin-1-yl)propyl)amino)-2-(2,6-dioxopiperidin-3-yl) isoindoline-1,3-dione] | < 50 nM | > 80% | < 50 nM | > 80% | < 50 nM | dose-dependent CDK4/6 degradation | dose-dependent inhibition of cell proliferation | – |
| Cc1nc2c(F)cc(-c3nc(Nc4ccc(CN5CCN(CCCNc6ccc7c(c6)C(=O)N(C6CCC(=O)NC6=O)C7=O)CC5)cn4)ncc3F)cc2n1C(C)C (centres unmarked) [Compound 73, 2-(2,6-dioxopiperidin-3-yl)-5-((3-(4-((6-((5-fluoro-4-(4-fluoro-1-isopropyl-2-methyl-1H-benzo[d]imidazol-6-yl)pyrimidin-2-yl)amino)pyridin-3-yl)methyl)piperazin-1-yl)propyl)amino) isoindoline-1,3-dione] | < 50 nM | > 80% | < 50 nM | > 80% | < 50 nM | dose-dependent CDK4/6 degradation | dose-dependent inhibition of cell proliferation | – |
| Cc1nc2c(F)cc(-c3nc(Nc4ccc(CN5CCN(CCNc6ccc7c(c6)C(=O)N(C6CCC(=O)NC6=O)C7=O)CC5)cn4)ncc3F)cc2n1C(C)C (centres unmarked) [Compound 90, 2-(2,6-dioxopiperidin-3-yl)-5-((2-(4-((6-((5-fluoro-4-(4-fluoro-1-isopropyl-2-methyl-1H-benzo[d]imidazol-6-yl)pyrimidin-2-yl)amino)pyridin-3-yl)methyl)piperazin-1-yl)ethyl)amino) isoindoline-1,3-dione] | < 50 nM | > 80% | < 50 nM | > 80% | < 50 nM | – | dose-dependent inhibition of cell proliferation | inhibiting Mino xenograft tumor growth |
| Cc1nc2c(F)cc(-c3nc(Nc4ccc(CN5CCN(CC6CN(c7ccc8c(c7)C(=O)N(C7CCC(=O)NC7=O)C8=O)C6)CC5)cn4)ncc3F)cc2n1C(C)C (centres unmarked) [Compound 94, 2-(2,6-dioxopiperidin-3-yl)-5-(3-((4-((6-((5-fluoro-4-(4-fluoro-1-isopropyl-2-methyl-1H-benzo[d]imidazol-6-yl)pyrimidin-2-yl)amino)pyridin-3-yl)methyl)piperazin-1-yl)methyl)azetidin-1-yl)isoindoline-1,3-dione] | < 50 nM | > 80% | < 50 nM | > 80% | < 50 nM | – | dose-dependent inhibition of cell proliferation | inhibiting Mino xenograft tumor growth |
| CC(=O)c1c(C)c2cnc(Nc3ccc(N4CCN(C(=O)CNc5ccc6c(c5)C(=O)N(C5CCC(=O)NC5=O)C6=O)CC4)cn3)nc2n(C2CCCC2)c1=O (centres unmarked) [Compound 104, 5-((2-(4-(6-((6-acetyl-8-cyclopentyl-5-methyl-7-oxo-7,8-dihydropyrido[2,3-d]pyrimidin-2-yl)amino)pyridin-3-yl)piperazin-1-yl)-2-oxoethyl)amino)-2-(2,6-dioxopiperidin-3-yl)isoindoline-1,3-dione] | 50 to 200 nM | > 60% | 50 to 200 nM | > 60% | < 50 nM | dose-dependent CDK4/6 degradation | dose-dependent inhibition of cell proliferation | – |
| Cc1nc2c(F)cc(-c3nc(Nc4ccc(CC5CCN(C6CCN(c7ccc(NC8CCC(=O)NC8=O)cc7)CC6)CC5)cn4)ncc3F)cc2n1C(C)C (centres unmarked) [Compound 172, 3-((4-(4-((6-((5-fluoro-4-(4-fluoro-1-isopropyl-2-methyl-1H-benzo[d]imidazol-6-yl)pyrimidin-2-yl)amino)pyridin-3-yl)methyl)-[1,4′-bipiperidin]-1′-yl)phenyl)amino) piperidine-2,6-dione] | 50 to 200 nM | > 80% | 50 to 200 nM | > 80% | < 50 nM | – | – | – |

Continued, in another order:

| DC50 (CDK6) | Dmax (CDK6) | DC50 (CDK4) | Dmax (CDK4) | IC50 [1] | Structure (SMILES) | CDK4/6 degradation (CDK4/6) | inhibition of cell proliferation of Mino cells [1] | Mino xenograft tumor growth (Mino xenograft tumor) |
| --- | --- | --- | --- | --- | --- | --- | --- | --- |
| < 50 nM | > 60% | < 50 nM | > 80% | < 50 nM | Cc1nc2c(F)cc(-c3nc(Nc4ccc(CC5CCN(C6CCN(c7ccc8c(c7)CN(C7CCC(=O)NC7=O)C8=O)CC6)CC5)cn4)ncc3F)cc2n1C(C)C (centres unmarked) [Compound 170, 3-(5-(4-((6-((5-fluoro-4-(4-fluoro-1-isopropyl-2-methyl-1H-benzo[d]imidazol-6-yl)pyrimidin-2-yl)amino)pyridin-3-yl)methyl)-[1,4′-bipiperidin]-1′-yl)-1-oxoisoindolin-2-yl)piperidine-2,6-dione] | – | – | – |
| 50 to 200 nM | > 60% | 50 to 200 nM | > 60% | 50 to 200 nM | Cc1nc2c(F)cc(-c3nc(Nc4ccc(CC5CCN(C6CCN(c7ccc(C(=O)NC8CCC(=O)NC8=O)cc7)CC6)CC5)cn4)ncc3F)cc2n1C(C)C (centres unmarked) [Compound 171, N-(2,6-dioxopiperidin-3-yl)-4-(4-((6-((5-fluoro-4-(4-fluoro-1-isopropyl-2-methyl-1H-benzo[d]imidazol-6-yl)pyrimidin-2-yl)amino)pyridin-3-yl)methyl)-[1,4′-bipiperidin]-1′-yl) benzamide] | – | – | – |
